Source: patent publication US10918713B2, “Epitopes from allergen proteins and methods and uses for immune response modulation” (LA JOLLA INSTITUTE FOR ALLERGY AND IMMUNOLOGY, priority 2012, dated 2021)
“And” between values parts separate entries of the source, which are not always exact repeats. Equal entries are not always repeated.

Tests used:
Format in all cases: cell-based, human
[1] = test system: PBMC from allergic donors; assay: IL-5 ELISPOT with extract-stimulated short-term lines; conditions: positive donor/peptide response
Protocol: (§1) Spots were counted by computer-assisted image analysis (Zeiss, KS-ELISPOT reader, Munich, Germany).
(§2) Each assay was performed in triplicate. The level of statistical significance was determined with a Student's t-test using the mean of triplicate values of the response against relevant pools or individual peptides versus the response against the DMSO control.

[2] = test system: PBMC from allergic donors; assay: IFN-γ ELISPOT with extract-stimulated short-term lines; conditions: positive donor/peptide response
Protocol: as §1, §2

[3] = test system: PBMC from allergic donors; assay: Dual ELISPOT, total IL-5 and IFN-γ response (SFC); conditions: sum of IFNg and IL-5
Protocol: as §1, §2

Compound	Response (SFC/10^6) IL-5 ([1]; each table line is one donor)	Response (SFC/10^6) IFNg ([2]; each table line is one donor)	Response (SFC/10^6) Total ([3]; each table line is one donor)	Response (SFC/10^6) IL-5 ([1]; one donor per table line)	Response (SFC/10^6) IFNg ([2]; one donor per table line)	Response (SFC/10^6) Total ([3]; one donor per table line)
CC(C)[C@H](NC(=O)[C@H](Cc1ccccc1)NC(=O)[C@H](CO)NC(=O)[C@H](CC(=O)O)NC(=O)[C@H](Cc1ccccc1)NC(=O)[C@H](CCCCN)NC(=O)[C@H](C)NC(=O)[C@H](CCC(=O)O)NC(=O)[C@@H]1CCCN1C(=O)[C@@H](NC(=O)[C@H](C)N)[C@@H](C)O)C(=O)N[C@@H](C)C(=O)N[C@@H](C)C(=O)N[C@@H](Cc1ccccc1)C(=O)N[C@H](C(=O)O)[C@@H](C)O [3324.1570]	238 SFC/10^6	80 SFC/10^6 and 117 SFC/10^6	238 SFC/10^6 and 80 SFC/10^6 and 117 SFC/10^6			
3324.0660 (IPTAFKIGTTYTPEE)				170 SFC/10^6	110 SFC/10^6	280 SFC/10^6
3324.1625 (GFYLQWAVHSFRITN)	143 SFC/10^6	193 SFC/10^6	337 SFC/10^6			
3337.0008 (WLDAKSTWYGKPTGA)				57 SFC/10^6	140 SFC/10^6 and 283 SFC/10^6 and 163 SFC/10^6	140 SFC/10^6 and 57 SFC/10^6 and 283 SFC/10^6 and 163 SFC/10^6
CC[C@H](C)[C@H](NC(=O)[C@@H](NC(=O)[C@H](CCCNC(=N)N)NC(=O)[C@H](CC(C)C)NC(=O)[C@H](C)NC(=O)[C@H](CCC(=O)O)NC(=O)[C@@H](NC(=O)[C@H](CC(C)C)NC(=O)[C@@H](NC(=O)[C@H](C)NC(=O)[C@@H](NC(=O)[C@H](Cc1ccc(O)cc1)NC(=O)[C@H](C)NC(=O)[C@@H](N)CC(=O)O)C(C)C)[C@@H](C)O)[C@@H](C)O)C(C)C)C(=O)N[C@@H](C)C(=O)O [3324.1167]	410 SFC/10^6 and 1743 SFC/10^6	1017 SFC/10^6	1427 SFC/10^6 and 1743 SFC/10^6			
CC[C@H](C)[C@H](NC(=O)[C@H](CC(N)=O)NC(=O)[C@@H](NC(=O)[C@H](CC(=O)O)NC(=O)[C@@H](N)CCC(=O)O)[C@@H](C)O)C(=O)N[C@@H](Cc1ccc(O)cc1)C(=O)N[C@@H](CC(N)=O)C(=O)N[C@@H](CO)C(=O)N[C@@H](CC(N)=O)C(=O)N[C@@H](CCC(=O)O)C(=O)N[C@@H](C)C(=O)N[C@@H](Cc1ccccc1)C(=O)N[C@@H](CCCCN)C(=O)N[C@H](C(=O)N[C@@H](CCC(=O)O)C(=O)O)C(C)C [3324.0606]				427 SFC/10^6	240 SFC/10^6 and 73 SFC/10^6	427 SFC/10^6 and 240 SFC/10^6 and 73 SFC/10^6
CC[C@H](C)[C@H](NC(=O)[C@@H]1CCCN1C(=O)[C@H](CC(N)=O)NC(=O)[C@H](C)NC(=O)[C@H](Cc1ccc(O)cc1)NC(=O)[C@@H](N)CCCNC(=N)N)C(=O)N[C@@H](C)C(=O)N[C@@H](Cc1ccccc1)C(=O)N[C@@H](Cc1ccccc1)C(=O)N[C@@H](CCCNC(=N)N)C(=O)N[C@@H](CCCCN)C(=O)N[C@@H](CCC(=O)O)C(=O)N1CCC[C@H]1C(=O)N[C@@H](CC(C)C)C(=O)N[C@@H](CCCCN)C(=O)O [3324.1138]				1697 SFC/10^6	440 SFC/10^6	2137 SFC/10^6
CC(C)C[C@H](NC(=O)[C@H](CC(N)=O)NC(=O)[C@H](CC(=O)O)NC(=O)[C@H](CO)NC(=O)[C@H](CC(=O)O)NC(=O)[C@H](CC(C)C)NC(=O)[C@@H](NC(=O)[C@H](Cc1ccccc1)NC(=O)[C@H](C)NC(=O)[C@H](CCCCN)NC(=O)[C@H](Cc1ccccc1)NC(=O)[C@H](CC(C)C)NC(=O)[C@H](CCCNC(=N)N)NC(=O)[C@H](C)NC(=O)[C@@H]1CCCN1)C(C)C)C(=O)O [3324.1585]				170 SFC/10^6 and 890 SFC/10^6 and 1790 SFC/10^6 and 190 SFC/10^6 and 520 SFC/10^6 and 70 SFC/10^6	1877 SFC/10^6 and 393 SFC/10^6 and 180 SFC/10^6	170 SFC/10^6 and 2767 SFC/10^6 and 1790 SFC/10^6 and 583 SFC/10^6 and 700 SFC/10^6 and 70 SFC/10^6
C[C@H](NC(=O)[C@@H](NC(=O)[C@H](C)NC(=O)[C@H](C)NC(=O)[C@H](C)NC(=O)[C@@H]1CCCN1C(=O)[C@@H](NC(=O)[C@H](C)NC(=O)[C@@H](NC(=O)[C@H](C)NC(=O)[C@H](Cc1ccc(O)cc1)NC(=O)[C@H](C)NC(=O)[C@H](C)NC(=O)[C@H](C)NC(=O)[C@@H]1CCCN1)[C@@H](C)O)[C@@H](C)O)[C@@H](C)O)C(=O)O [3324.1184]	1637 SFC/10^6	58 SFC/10^6	58 SFC/10^6 and 1637 SFC/10^6			
CC[C@H](C)[C@H](N)C(=O)N[C@H](C(=O)N[C@@H](Cc1ccc(O)cc1)C(=O)N[C@H](C(=O)N[C@@H](CCCCN)C(=O)N1CCC[C@H]1C(=O)N[C@@H](C)C(=O)N[C@@H](CCCCN)C(=O)N[C@@H](CC(N)=O)C(=O)N[C@H](C(=O)N[C@@H](Cc1ccc(O)cc1)C(=O)N[C@@H](CO)C(=O)N[C@@H](Cc1ccccc1)C(=O)N[C@@H](CC(N)=O)C(=O)N[C@@H](CCC(=O)O)C(=O)O)[C@@H](C)CC)[C@@H](C)CC)C(C)C [3324.0386]					227 SFC/10^6 and 487 SFC/10^6	227 SFC/10^6 and 487 SFC/10^6
CC[C@H](C)[C@H](NC(=O)[C@H](CO)NC(=O)CNC(=O)CN)C(=O)N[C@@H](CC(C)C)C(=O)N[C@@H](CCCCN)C(=O)N[C@H](C(=O)N[C@@H](CO)C(=O)N[C@@H](CC(N)=O)C(=O)N[C@@H](CCCCN)C(=O)N[C@@H](Cc1ccccc1)C(=O)N[C@@H](Cc1c[nH]cn1)C(=O)N[C@H](C(=O)N[C@@H](CCCCN)C(=O)NCC(=O)O)[C@@H](C)O)[C@@H](C)CC [3324.0007]					887 SFC/10^6 and 357 SFC/10^6	887 SFC/10^6 and 357 SFC/10^6
3324.1159 (PENFAVVDLNQMRAV)		75 SFC/10^6	75 SFC/10^6			
3324.0379 (TNFEIEASFGVEASE)					1113 SFC/10^6	1113 SFC/10^6
3324.0894 (NGKLHLSLIDPSTLS)					460 SFC/10^6	460 SFC/10^6
3324.0382 (LYPDVKYTTVEEYLQ)				67 SFC/10^6	67 SFC/10^6	
3324.1177 (AAVKQAYAAKQATAP)		43 SFC/10^6	43 SFC/10^6			
3324.1145 (LRKYGIAAENVIDVK)		50 SFC/10^6	50 SFC/10^6			

Compound	Response (SFC/10^6) IL-5 ([1]; each table line is one donor)	Response (SFC/10^6) IFNg ([2]; each table line is one donor)	Response (SFC/10^6) Total ([3]; each table line is one donor)	Response (SFC/10^6) IL-5 ([1]; one donor per table line)	Response (SFC/10^6) IFNg ([2]; one donor per table line)	Response (SFC/10^6) Total ([3]; one donor per table line)
3324.0922 (TGLPLMYKFGDNLVV)					247 SFC/10^6	247 SFC/10^6
3324.1133 (MASSSSVLLVVALFA)					53 SFC/10^6	53 SFC/10^6
3324.0001 (AVGLLKAVESYLLAH)				597 SFC/10^6	597 SFC/10^6	
3324.1152 (FPHRKGVLFNIQYVN)		100 SFC/10^6	100 SFC/10^6			
3324.0652 (LRTLGSTSADEVQRM)					113 SFC/10^6	113 SFC/10^6
3324.0380 (VILAINHSVFVKGDH)					1410 SFC/10^6	1410 SFC/10^6
3324.0630 (LVATSAISLHMQEAG)					83 SFC/10^6	83 SFC/10^6
3324.1653 (FDLYFSMARGNASLP)		343 SFC/10^6	343 SFC/10^6			
3324.1169 (DAALKLAYEAAQGAT)		120 SFC/10^6	120 SFC/10^6			
CC[C@H](C)[C@H](NC(=O)[C@H](CC(N)=O)NC(=O)[C@H](CCCCN)NC(=O)[C@H](C)NC(=O)[C@@H]1CCCN1C(=O)[C@H](CCCCN)NC(=O)[C@@H](NC(=O)[C@H](Cc1ccc(O)cc1)NC(=O)[C@@H](NC(=O)[C@@H](NC(=O)[C@H](CCCCN)NC(=O)[C@H](CC(N)=O)NC(=O)[C@H](CC(C)C)NC(=O)[C@@H](NC(=O)[C@@H](N)CCCNC(=N)N)[C@@H](C)O)[C@@H](C)CC)C(C)C)[C@@H](C)CC)C(=O)O [3324.0387]					580 SFC/10^6 and 140 SFC/10^6	580 SFC/10^6 and 140 SFC/10^6
3324.0103 (IAKVPPGPNITATYG)					153 SFC/10^6 and 223 SFC/10^6 and 267 SFC/10^6	153 SFC/10^6 and 223 SFC/10^6 and 267 SFC/10^6
3324.0100 (MLTLFILIITSTIKA)		63 SFC/10^6 and 167 SFC/10^6	63 SFC/10^6 and 167 SFC/10^6			
3324.0372 (PAKNIYSFNEIVALW)					67 SFC/10^6	67 SFC/10^6
CC[C@H](C)[C@H](NC(=O)[C@H](Cc1ccccc1)NC(=O)[C@H](C)NC(=O)[C@H](CCCCN)NC(=O)[C@H](Cc1ccccc1)NC(=O)[C@H](CC(C)C)NC(=O)[C@H](CCCNC(=N)N)NC(=O)[C@H](C)NC(=O)[C@H](C)NC(=O)[C@@H]1CCCN1C(=O)[C@@H](NC(=O)[C@@H](NC(=O)[C@H](CO)NC(=O)[C@@H]1CCCN1)C(C)C)[C@@H](C)CC)C(=O)N[C@@H](CC(C)C)C(=O)O [3324.0004]					683 SFC/10^6	683 SFC/10^6
3324.1647 (SLATLQSLESIVGKD)		228 SFC/10^6	228 SFC/10^6			
3337.0006 (KQEDDGLCYEGTNCG)		123 SFC/10^6	123 SFC/10^6			
